Laboratory results published in article PMC2394487, “Improved radiotracing of oxytocin receptor-expressing tumours using the new [^111In]-DOTA-Lys^8-deamino-vasotocin analogue” (British Journal of Cancer, 2003).
“Also recorded” adds a separate entry of the source. Positions of bridges follow the written chain, without caps; N, C: chain ends. Non-standard residues stand in square brackets, D forms with d. Residues, ends and D or L forms follow the SMILES beside them. *: point of attachment. DOTA = O=C(O)CN1CCN(CC(=O)O)CCN(CC(=O)*)CCN(CC(=O)O)CC1; Mpa = O=C(O)CCS

Tests used:
[1] = biological target: T1, human OTR (Homo sapiens, UniProt P30559); assay: Heterologous competition binding, [3H]-OT displacement, membranes of transfected COS7 cells; conditions: for Ki: displacement of [3H]-OT, mean±s.e. of three experiments
T1 construct: expressed in transfected cells; host or cells: COS7 (monkey kidney), transient electroporation
T1 sequence (P30559 1-389): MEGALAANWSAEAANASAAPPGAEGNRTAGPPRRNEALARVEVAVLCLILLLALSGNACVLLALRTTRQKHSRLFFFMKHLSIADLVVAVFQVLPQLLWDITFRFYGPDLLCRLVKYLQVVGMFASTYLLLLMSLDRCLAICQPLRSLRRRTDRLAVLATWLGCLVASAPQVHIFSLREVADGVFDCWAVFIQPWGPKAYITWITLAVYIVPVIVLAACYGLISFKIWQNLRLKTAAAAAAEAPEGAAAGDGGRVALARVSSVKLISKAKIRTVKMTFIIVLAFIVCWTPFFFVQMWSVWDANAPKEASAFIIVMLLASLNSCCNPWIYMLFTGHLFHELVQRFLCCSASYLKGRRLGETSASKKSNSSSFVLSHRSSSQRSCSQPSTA
Experimental: (§1) To determine the LVT, dLVT and DOTA-dLVT affinity constants in comparison with OT, heterologous competition experiments were performed on membranes prepared from monkey kidney COS7 cells transiently transfected by means of electroporation with human OTR, V1a, V2 and V1b cDNAs as previously described ([Chini et al, 1995a]). Briefly, the transfected cells were homogenised with a Dounce glass apparatus, washed twice, and resuspended in binding buffer (50 mM Tris HCl, 5 mM MgCl, pH 7.4). Between 5 and 10 μg of membrane proteins were incubated with a fixed concentration of [^3H]OT (1–2 nM) for 30 min at 30°C in the presence of increasing concentrations of unlabelled peptides. Nonspecific binding was determined in the presence of 1 μM OT. Bound and free radioactivity were separated by filtration over Whatman GF/C filters presoaked in 10 mg ml^−1 BSA. The binding isotherms were analysed using GraphPad Prism.
LVT, dLVT and DOTA-dLVT affinities for the human OTR were determined by means of heterologous competition experiments on membranes prepared from transiently transfected COS7 cells using [^3H]-OT as radioligand.
Figure 3 Binding of LVT-derived peptides to human OT/AVP receptor subtypes. (A) Comparison of OT and DOTA-dLVT affinity for the human OTR. […] [^3H]-OT was used at a concentration of 1–2 nM, and nonspecific binding was determined in the presence of […] OT. Data are expressed as the percentage of bound [^3H]-OT in the absence of cold competitor. […] The affinity of [^111In]-DOTA-dLVT for the human OTR was measured by incubating increasing amounts of labelled peptide to membrane preparations of COS7 cells transiently transfected with the wild-type OTR. […] The membrane preparations of OTR-expressing cells were incubated in the presence of a constant amount of ^3[H]OT (1–2 nM), and nonspecific binding was determined in the presence of 100 μM OT. The membrane preparations of cells expressing V1a, V1b and V2 receptors were incubated in the presence of a constant amount of ^3[H]AVP (2–4 nM), and nonspecific binding was determined in the presence of 100 μM AVP. […]

[2] = biological target: T2, human V2 receptor (Homo sapiens, UniProt P30518); assay: Competition binding, [3H]-AVP displacement, membranes of transfected COS7 cells; conditions: for Ki: displacement of [3H]-AVP, mean±s.e. of three experiments
T2 construct: expressed in transfected cells; host or cells: COS7 (monkey kidney), transient electroporation
Experimental: as §1
(§2) Figure 3 Binding of LVT-derived peptides to human OT/AVP receptor subtypes. (A) Comparison of OT and DOTA-dLVT affinity for the human OTR. Competition experiments were performed using membrane preparations of COS7 cells transiently transfected with the wild-type OTR. [^3H]-OT was used at a concentration of 1–2 nM, and nonspecific binding was determined in the presence of […] OT. Data are expressed as the percentage of bound [^3H]-OT in the absence of cold competitor. The curves are representative of three independent assays performed in triplicate. (B) [^111In]-DOTA-dLVT saturation binding assay. The affinity of [^111In]-DOTA-dLVT for the human OTR was measured by incubating increasing amounts of labelled peptide to membrane preparations of COS7 cells transiently transfected with the wild-type OTR. The curve is representative of two independent assays performed in triplicate. (C) Receptor selectivity profile of DOTA-dLVT. Competition experiments were performed using membrane preparations of COS7 cells transiently transfected with the wild-type human OTR, and V1a, V1b and V2 receptors. The membrane preparations of OTR-expressing cells were incubated in the presence of a constant amount of ^3[H]OT (1–2 nM), and nonspecific binding was determined in the presence of 100 μM OT. The membrane preparations of cells expressing V1a, V1b and V2 receptors were incubated in the presence of a constant amount of ^3[H]AVP (2–4 nM), and nonspecific binding was determined in the presence of 100 μM AVP. The data are expressed as percentages of bound [^3H]-ligand in the absence of cold competitor. Each curve is the mean of triplicate determinations of a single representative experiment.

[3] = biological target: T3, human V1a receptor (Homo sapiens, UniProt P37288); assay: as above; conditions: for Ki: displacement of [3H]-AVP, mean±s.e. of three experiments
T3 construct: expressed in transfected cells; host or cells: COS7 (monkey kidney), transient electroporation
Experimental: as §1, §2

[4] = biological target: T4, human V1b receptor (Homo sapiens, UniProt P47901); assay: as above; conditions: for Ki: displacement of [3H]-AVP, mean±s.e. of three experiments
T4 construct: expressed in transfected cells; host or cells: COS7 (monkey kidney), transient electroporation
T4 sequence (P47901 1-424): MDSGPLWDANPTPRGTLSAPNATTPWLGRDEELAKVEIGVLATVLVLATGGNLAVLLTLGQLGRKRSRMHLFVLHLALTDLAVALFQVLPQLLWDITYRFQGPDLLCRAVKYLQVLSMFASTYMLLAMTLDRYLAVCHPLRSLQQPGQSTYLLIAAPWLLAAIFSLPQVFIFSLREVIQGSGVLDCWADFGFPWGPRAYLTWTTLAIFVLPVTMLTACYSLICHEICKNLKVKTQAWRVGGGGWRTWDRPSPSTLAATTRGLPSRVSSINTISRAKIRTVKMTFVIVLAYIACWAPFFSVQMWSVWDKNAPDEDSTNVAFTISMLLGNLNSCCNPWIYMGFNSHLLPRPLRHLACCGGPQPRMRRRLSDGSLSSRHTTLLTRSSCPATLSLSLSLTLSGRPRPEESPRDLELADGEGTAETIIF
Experimental: as §1, §2

[5] = system: OTR-positive cells (MCF7, TS/A, MOG-U-V-W); assay: Displacement of [111In]-DOTA-dLVT binding from intact tumour cells by cold peptides; assay type: cell-based; conditions: 5 min preincubation with 100 μM and 1 mM nonradioactive peptide
Experimental: Binding specificity was determined by evaluating radioactive displacement. Briefly, the cell suspension was incubated for 5 min in the presence of LVT, dLVT or OT 100 μM and 1 mM, or in the presence of unrelated peptides (somatostatin 100 nM and 1 μM, and hexarelin 1 μM) followed by 20 min of incubation with 1 μM [^111In]-DOTA-dLVT. The cells were then centrifuged and washed twice as described above. The activity of the two different agonists and the unrelated peptides in competing with the radioligand was evaluated by measuring cell-bound radioactivity. All of the experiments were performed in triplicate. The statistical analysis was carried out using ANOVA, with a significance cutoff point of 0.05.

[6] = biological target: T5, human OTR fused to EGFP (Homo sapiens, UniProt P30559); assay: Peptide-induced receptor internalisation, confocal microscopy, HEK293 cells; assay type: cell-based; conditions: peptide 10^−6 M; for receptor internalisation (result in words): up to 60 min
T5 construct: expressed in transfected cells; host or cells: HEK293, stably transfected
T5 sequence (P30559 1-389): T1 sequence (P30559 1-389)
Experimental: HEK293 cells stably transfected with the human OTR fused to EGFP were grown in six-well dishes, washed twice in serum-free medium, and left to equilibrate for 30 min at 37°C. Peptides were then added at a final concentration of 10^−6 M. At fixed time intervals (5, 15, 30 and 60 min), the cells were washed twice with 10 mM sodium phosphate buffer, pH 7.4, containing 150 mM NaCl (LS buffer), fixed for 20 min at room temperature with 4% (w v^−1) paraformaldehyde, and mounted on glass slides with 90% (v v^−1) glycerol in PBS. The slides were observed under an MRC1024 BioRad confocal microscope.
To assess whether LVT, dLVT and DOTA-dLVT behave like OT to induce receptor internalisation, we applied them to HEK293 cells stably expressing a human OTR C-terminally tagged with the green fluorescent protein EGFP ([Guzzi et al, 2002]; [Rimoldi et al, 2003]).
Figure 4 Laser-scanning confocal microscopy analysis of peptide-induced receptor internalisation. Receptor internalisation was investigated in HEK293 cells stably transfected with the human OTR bearing the EGFP fused at its C-terminus. The cells were grown on coverslips and incubated in serum-free medium for 30 min (Bas), after which the peptides were added at a final concentration of 10^−6 M and the coverslips were fixed at 1, 5, 15, 30 and 60 min.

[7] = biological target: T1, human OTR; assay: [111In]-DOTA-dLVT saturation binding assay, membranes of transfected COS7 cells
Experimental: as §2, with “(C) Receptor selectivity profile of DOTA-dLVT. Competition experiments were performed using membrane preparations of COS7 cells transiently transfected with the wild-type human OTR, and V1a, V1b and V2 receptors.” left out, “Each curve is the mean of triplicate determinations of a single representative experiment.” left out

[8] = system: OTR+ TS/A tumours; assay: in vivo; design: species or system Balb/c mice; conditions: mouse; for tissue to tissue ratio at 5 h: female, Balb/c, iv, 74 kBq, total radioactivity
Experimental: To determine the amount and specificity of the receptor-mediated uptake of [^111In]-DOTA-dLVT in tumours, we used an experimental model of OTR+ TS/A tumours growing in Balb/c mice. A total of 10 female Balb/c mice weighing 25 g were subcutaneously injected with TS/A mammary carcinoma (0.3 × 10^6 in 0.2 ml of medium). After 20 days, when the growing tumour had reached about 2 cm in diameter, five mice were intravenously administered 50 μg of cold OT 30 min before the radiotracer and the other five were not. Mice were injected in the tail vein with [^111In]-DOTA-dLVT (average activity: 74 kBq) and killed 5 h later. The organs were collected, washed, weighed and their radioactivity was measured in a gamma-ray detector with well-counter geometry ([…], Milan, Italy) together with standards of the injection mixture. Activity was expressed as the percentage of the injected dose (%ID) g^-1 of tissue, and the uptake ratios of tumour, blood, kidney and liver were calculated. [table]

T3 sequence (P37288 whole entry): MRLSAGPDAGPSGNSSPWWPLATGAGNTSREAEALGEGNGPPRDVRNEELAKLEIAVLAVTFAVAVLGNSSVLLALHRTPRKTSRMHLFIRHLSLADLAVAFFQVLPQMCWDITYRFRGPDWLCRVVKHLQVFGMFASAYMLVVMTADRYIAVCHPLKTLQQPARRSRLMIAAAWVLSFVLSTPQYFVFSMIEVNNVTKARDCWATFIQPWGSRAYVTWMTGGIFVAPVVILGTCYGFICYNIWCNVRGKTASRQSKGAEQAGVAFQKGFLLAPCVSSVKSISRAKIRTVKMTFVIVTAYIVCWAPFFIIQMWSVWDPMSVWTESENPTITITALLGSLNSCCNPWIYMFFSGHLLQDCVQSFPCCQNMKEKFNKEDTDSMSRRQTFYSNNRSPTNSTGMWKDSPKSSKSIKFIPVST
T2 sequence (P30518 whole entry): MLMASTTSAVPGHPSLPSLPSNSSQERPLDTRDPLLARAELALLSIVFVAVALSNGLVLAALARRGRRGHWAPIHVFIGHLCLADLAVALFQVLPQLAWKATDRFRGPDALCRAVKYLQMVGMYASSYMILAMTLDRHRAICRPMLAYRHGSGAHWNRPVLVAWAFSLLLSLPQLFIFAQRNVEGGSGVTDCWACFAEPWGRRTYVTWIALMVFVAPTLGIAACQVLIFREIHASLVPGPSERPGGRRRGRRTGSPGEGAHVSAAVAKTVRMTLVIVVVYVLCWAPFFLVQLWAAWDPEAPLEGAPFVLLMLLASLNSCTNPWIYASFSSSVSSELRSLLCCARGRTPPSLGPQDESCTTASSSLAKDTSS

Compound	Ki [1]	Ki [2]	Ki [3]	Ki [4]	specific [111In]-DOTA-dLVT binding displaced [5]	lower affinity at V1a receptor relative to human OTR [3]	lower affinity at V1b receptor relative to human OTR [4]	time after application at which punctate fluorescence (endocytotic vesicles) is seen [6]	receptor internalisation (result in words) [6]	further results
CC[C@H](C)[C@@H]1NC(=O)[C@H](Cc2ccc(O)cc2)NC(=O)CCSSC[C@@H](C(=O)N2CCC[C@H]2C(=O)N[C@@H](CCCCN)C(=O)NCC(N)=O)NC(=O)[C@H](CC(N)=O)NC(=O)[C@H](CCC(N)=O)NC1=O [dLVT, reference compound] (HELM PEPTIDE1{[O=C(CCS[*:3])[*:2]].Y.I.Q.N.C.P.K.G.[am]}$PEPTIDE1,PEPTIDE1,1:R3-6:R3$$$V2.0)	3.88 ± 0.585 nM	3740 ± 400 nM	35.5 ± 6.2 nM	71.7 ± 2 nM						
oxytocin [OT]					more than 92%					
CC[C@H](C)[C@@H]1NC(=O)[C@H](Cc2ccc(O)cc2)NC(=O)CCSSC[C@@H](C(=O)N2CCC[C@H]2C(=O)N[C@@H](CCCCNC(=O)CN2CCN(CC(=O)O)CCN(CC(=O)O)CCN(CC(=O)O)CC2)C(=O)NCC(N)=O)NC(=O)[C@H](CC(N)=O)NC(=O)[C@H](CCC(N)=O)NC1=O [DOTA-dLVT] ([Mpa]YIQNCPK(DOTA)G-NH2; disulfide 1-6)	1.21 ± 0.199 nM	3560 ± 280 nM	370 ± 58 nM	640 ± 177 nM		≥ 300 fold	≥ 300 fold	5 min	capable of inducing a persistent internalisation; also recorded: rapid and persistent receptor internalisation	enhancement of affinity for the hOTR by addition of DOTA group at position 8 of dLVT ([1]; compared to dLVT (to both OT and dLVT)): 2–3 fold; decrease in binding affinity at V2 receptor relative to human OTR [2]: ≥ 300 fold
CC[C@H](C)[C@@H]1NC(=O)[C@H](Cc2ccc(O)cc2)NC(=O)[C@@H](N)CSSC[C@@H](C(=O)N2CCC[C@H]2C(=O)N[C@@H](CCCCN)C(=O)NCC(N)=O)NC(=O)[C@H](CC(N)=O)NC(=O)[C@H](CCC(N)=O)NC1=O [LVT, [Lys8]-vasotocin, reference compound] (HELM PEPTIDE1{C.Y.I.Q.N.C.P.K.G.[am]}$PEPTIDE1,PEPTIDE1,1:R3-6:R3$$$V2.0; C-terminus assumed; bridges inferred)					more than 92%	10 fold	10 fold	5 min	rapid and persistent receptor internalisation	concentrations at which V2 receptor binds the peptide ([2]; in words): only at micromolar concentrations
CC[C@H](C)[C@@H]1NC(=O)[C@H](Cc2ccc(O)cc2)NC(=O)CCSSC[C@@H](C(=O)N2CCC[C@H]2C(=O)N[C@@H](CCCCNC(=O)CN2CCN(CC(=O)O)CCN(CC(=O)O)CCN(CC(=O)O)CC2)C(=O)NCC(N)=O)NC(=O)[C@H](CC(N)=O)NC(=O)[C@H](CCC(N)=O)NC1=O [[^111In]-DOTA-dLVT, metal not drawn] ([Mpa]YIQNCPK(DOTA)G-NH2; disulfide 1-6)										Kd [7]: 4.5 nM; tissue to tissue ratio at 5 h ([8]; Tumour/kidney ratio): 0.06; tissue to tissue ratio at 5 h ([8]; Tumour/liver ratio): 1.42; Tumour/blood ratio [8]: 7.58; decrease in uptake when TS/A tumours were blocked with 50 μg of cold OT [8]: three-fold decrease
